Measured values: PubChem BioAssay AID256 (DTP/NCI, 2004)
Several values for one entry are separate records, joined by “and”; a condition that tells them apart may be missing. Equal values may be shown once. Inconclusive results and toxic doses are left out.

System: CD2F1 mice, L1210 leukemia ip, survival T/C
Assay: NCI In Vivo Anticancer Drug Screen. Data for tumor model L1210 Leukemia (intraperitoneal) in CD2F1 (CDF1) mice
Conditions: endpoint: mean survival time, higher = longer survival
Method in brief: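 Mice carrying a transplanted tumor received test compound or vehicle alone. The value is the measurement in the treated group divided by that in the vehicle-treated control group.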

[1] = dose: 100.0 mg/kg/injection, schedule: Q04DX003 (ip), vehicle: saline
[2] = dose: 100.0 mg/kg/injection, schedule: Q04DX003 (ip), vehicle: saline with Tween-80
[3] = dose: 200.0 mg/kg/injection, schedule: Q04DX003 (ip), vehicle: saline with Tween-80
[4] = dose: 400.0 mg/kg/injection, schedule: Q04DX003 (ip), vehicle: saline with Tween-80
[5] = dose: 100.0 mg/kg/injection, schedule: Q01DX009 (ip), vehicle: saline with Tween-80
[6] = dose: 200.0 mg/kg/injection, schedule: Q01DX009 (ip), vehicle: saline with Tween-80
[7] = dose: 25.0 mg/kg/injection, schedule: Q01DX009 (ip), vehicle: saline with Tween-80
[8] = dose: 50.0 mg/kg/injection, schedule: Q01DX009 (ip), vehicle: saline with Tween-80
[9] = dose: 100.0 mg/kg/injection, schedule: Q01DX001 (ip), vehicle: saline with Tween-80
[10] = dose: 100.0 mg/kg/injection, schedule: Q04DX002 (ip), vehicle: saline with Tween-80
[11] = dose: 200.0 mg/kg/injection, schedule: Q04DX002 (ip), vehicle: saline with Tween-80
[12] = dose: 200.0 mg/kg/injection, schedule: Q04DX003 (ip), vehicle: saline
[13] = dose: 400.0 mg/kg/injection, schedule: Q04DX003 (ip), vehicle: saline

With `CC(=O)Nc1ccn(C2OC(CO)C(O)C2O)c(=O)n1` (centres undefined) the T/C (dose: 12.5 mg/kg/injection, schedule: Q03HX024 (ip), vehicle: saline) was 196 % of control, the T/C (dose: 25.0 mg/kg/injection, schedule: Q03HX024 (ip), vehicle: saline) was 274 % of control and the T/C (dose: 37.5 mg/kg/injection, schedule: Q01DX008 (ip), vehicle: saline) was 150 % of control. The T/C (dose: 50.0 mg/kg/injection, schedule: Q03HX024 (ip), vehicle: saline) was 257 % of control, the T/C (dose: 50.0 mg/kg/injection, schedule: Q04DX003 (ip), vehicle: saline) was 113 % of control and the T/C (dose: 75.0 mg/kg/injection, schedule: Q01DX008 (ip), vehicle: saline) was 160 % of control. For the same molecule, the T/C [1] was 117 % of control, the T/C (dose: 150.0 mg/kg/injection, schedule: Q01DX001 (ip), vehicle: saline) was 106 % of control and the T/C (dose: 150.0 mg/kg/injection, schedule: Q01DX008 (ip), vehicle: saline) was 174 % of control. For the same molecule, the T/C (dose: 300.0 mg/kg/injection, schedule: Q01DX001 (ip), vehicle: saline) was 107 % of control, the T/C (dose: 600.0 mg/kg/injection, schedule: Q01DX001 (ip), vehicle: saline) was 107 % of control and the T/C (dose: 1200.0 mg/kg/injection, schedule: Q01DX001 (ip), vehicle: saline) was 104 % of control.

`O=C(OCCNc1ccc([N+](=O)[O-])cc1[N+](=O)[O-])c1ccccc1` was tested, and the T/C (dose: 100.0 mg/kg/injection, schedule: Q04DX002 (ip), vehicle: other) was 101 % of control, the T/C (dose: 200.0 mg/kg/injection, schedule: Q04DX002 (ip), vehicle: other) was 108 % of control and the T/C (dose: 400.0 mg/kg/injection, schedule: Q04DX002 (ip), vehicle: other) was 96 % of control.

With `Cc1cc(C)cc(OC(=O)/C=C/C(=O)Oc2cc(C)cc(C)c2)c1` the T/C [2] was 100 % of control, the T/C [3] was 95 % of control and the T/C [4] was 96 % of control.

With `COC(=O)C1(C)CCCC2(C)C1CCC13OC1C1(C(C)C)OC1CC23` (centres undefined) the T/C [5] was 98 % of control, the T/C [6] was 104 % of control and the T/C (dose: 400.0 mg/kg/injection, schedule: Q01DX009 (ip), vehicle: saline with Tween-80) was 98 % of control.

`CC(=O)Nc1ccc(OCCOC(=O)Nc2ccc(Cl)cc2C)cc1` was tested, and the T/C (dose: 12.5 mg/kg/injection, schedule: Q01DX009 (ip), vehicle: saline with Tween-80) was 98 % of control, the T/C [7] was 95 % of control and the T/C [8] was 95 % of control and 96 % of control. For the same molecule, the T/C [6] was 92 % of control.

`Cc1ccc(P(=S)(c2ccc(C)c3ccccc23)c2ccc(C)c3ccccc23)c2ccccc12` was tested, and the T/C (dose: 100.0 mg/kg/injection, schedule: Q01DX001 (ip), vehicle: saline) was 91 % of control, the T/C (dose: 200.0 mg/kg/injection, schedule: Q01DX001 (ip), vehicle: saline) was 97 % of control and the T/C (dose: 400.0 mg/kg/injection, schedule: Q01DX001 (ip), vehicle: saline) was 91 % of control.

`C/C=C/C(=O)Nc1ccc(Cl)c(Cl)c1` was tested, and the T/C (dose: 25.0 mg/kg/injection, schedule: Q01DX001 (ip), vehicle: saline with Tween-80) was 102 % of control, the T/C (dose: 50.0 mg/kg/injection, schedule: Q01DX001 (ip), vehicle: saline with Tween-80) was 101 % of control and the T/C [9] was 95 % of control.

For `C/C=N\N=C(N)N`, the T/C (dose: 30.0 mg/kg/injection, schedule: Q01DX010 (ip), vehicle: saline) was 96 % of control, the T/C (dose: 60.0 mg/kg/injection, schedule: Q01DX009 (ip), vehicle: saline) was 96 % of control and the T/C (dose: 120.0 mg/kg/injection, schedule: Q01DX010 (ip), vehicle: saline) was 91 % of control. The T/C (dose: 240.0 mg/kg/injection, schedule: Q01DX009 (ip), vehicle: saline) was 93 % of control and the T/C (dose: 480.0 mg/kg/injection, schedule: Q01DX009 (ip), vehicle: saline) was 93 % of control.

For `CCN(CC)C(=O)Nc1cc(Cl)ccc1Cl`, the T/C [10] was 97 % of control and the T/C [11] was 101 % of control.

In the case of `COc1ccc(C(=O)NNC(=O)c2ccc(OC)c(OC)c2)cc1OC`, the T/C (dose: 12.5 mg/kg/injection, schedule: Q01DX009 (ip), vehicle: other) is reported as 92 % of control, the T/C (dose: 25.0 mg/kg/injection, schedule: Q01DX009 (ip), vehicle: other) is reported as 93 % of control and the T/C (dose: 50.0 mg/kg/injection, schedule: Q01DX009 (ip), vehicle: other) is reported as 92 % of control. The T/C (dose: 100.0 mg/kg/injection, schedule: Q01DX009 (ip), vehicle: other) was 108 % of control and the T/C (dose: 200.0 mg/kg/injection, schedule: Q01DX009 (ip), vehicle: other) was 107 % of control.

In the case of `c1ccc(COCCOc2ccccc2)cc1`, the T/C [2] is reported as 96 % of control, the T/C [3] is reported as 98 % of control and the T/C [4] is reported as 102 % of control.

In the case of `C=CC1CC(=O)N1` (centres undefined), the T/C (dose: 75.0 mg/kg/injection, schedule: Q01DX009 (ip), vehicle: saline) is reported as 102 % of control, the T/C (dose: 75.0 mg/kg/injection, schedule: Q04DX003 (ip), vehicle: saline) is reported as 97 % of control and the T/C (dose: 150.0 mg/kg/injection, schedule: Q01DX009 (ip), vehicle: saline) is reported as 103 % of control. The T/C (dose: 150.0 mg/kg/injection, schedule: Q04DX003 (ip), vehicle: saline) was 101 % of control, the T/C (dose: 300.0 mg/kg/injection, schedule: Q01DX009 (ip), vehicle: saline) was 103 % of control and the T/C (dose: 300.0 mg/kg/injection, schedule: Q04DX003 (ip), vehicle: saline) was 95 % of control.

With `[Cl][Pt+2][Cl].[NH-]C1CCCC1.[NH2-]` the T/C (dose: 0.39 mg/kg/injection, schedule: Q04DX003 (ip), vehicle: water) was 106 % of control, the T/C (dose: 0.78 mg/kg/injection, schedule: Q04DX003 (ip), vehicle: water) was 122 % of control and the T/C (dose: 3.12 mg/kg/injection, schedule: Q04DX003 (ip), vehicle: saline with Tween-80) was 182 % of control. For the same molecule, the T/C (dose: 3.13 mg/kg/injection, schedule: Q04DX003 (ip), vehicle: water) was 156 % of control.

`ClC1CCCC[N-]1.ClC1CCCC[N-]1.[Cl][Pt+2][Cl]` (centres undefined) was tested, and the T/C (dose: 12.5 mg/kg/injection, schedule: Q01DX009 (ip), vehicle: Klucel (hydroxypropylcellulose) (HPC)) was 103 % of control, the T/C (dose: 25.0 mg/kg/injection, schedule: Q01DX009 (ip), vehicle: Klucel (hydroxypropylcellulose) (HPC)) was 100 % of control and the T/C (dose: 50.0 mg/kg/injection, schedule: Q01DX009 (ip), vehicle: Klucel (hydroxypropylcellulose) (HPC)) was 95 % of control. The T/C (dose: 100.0 mg/kg/injection, schedule: Q01DX009 (ip), vehicle: Klucel (hydroxypropylcellulose) (HPC)) was 94 % of control and the T/C (dose: 200.0 mg/kg/injection, schedule: Q01DX009 (ip), vehicle: Klucel (hydroxypropylcellulose) (HPC)) was 97 % of control.

For `N#CC(Cl)(C#N)c1ccc(C(Cl)(C#N)C#N)cc1`, the T/C [7] was 101 % of control, the T/C [8] was 104 % of control and the T/C [5] was 98 % of control and 101 % of control.

For `CC(=O)N1CCC(Cc2ccccc2)CC1`, the T/C [1] was 97 % of control, the T/C [12] was 94 % of control and the T/C [13] was 95 % of control.

In the case of `Fc1c(F)c(F)[c]([Sn]([c]2ccccc2)([c]2ccccc2)[c]2ccccc2)c(F)c1F`, the T/C (dose: 12.5 mg/kg/injection, schedule: Q04DX003 (ip), vehicle: saline with Tween-80) is reported as 88 % of control and the T/C (dose: 25.0 mg/kg/injection, schedule: Q04DX003 (ip), vehicle: saline with Tween-80) is reported as 88 % of control.

`C1CC[N-]CC1.C1CC[N-]CC1.C1CC[N-]CC1.C1CC[N-]CC1.[Cl][Rh][Cl]` was tested, and the T/C (dose: 6.25 mg/kg/injection, schedule: Q04DX003 (ip), vehicle: saline) was 98 % of control and the T/C (dose: 50.0 mg/kg/injection, schedule: Q01DX009 (ip), vehicle: saline) was 90 % of control.

With `CCCCCCCCCCOc1ccc(OCCCCCCCCC)cc1` the T/C [9] was 86 % of control and the T/C (dose: 200.0 mg/kg/injection, schedule: Q01DX001 (ip), vehicle: saline with Tween-80) was 90 % of control.

For `CCOC(=O)/C=C(C)/C=C/C=C(/C)CCC=C(C)C`, the T/C [10] was 100 % of control, the T/C [11] was 100 % of control and the T/C (dose: 400.0 mg/kg/injection, schedule: Q04DX002 (ip), vehicle: saline with Tween-80) was 92 % of control.

For `CCOC(=O)CCC1(CCC(=O)OCC)OCCO1`, the T/C [2] was 93 % of control, the T/C [1] was 100 % of control and the T/C [3] was 98 % of control. For the same molecule, the T/C [12] was 96 % of control, the T/C [4] was 98 % of control and the T/C [13] was 100 % of control.

In the case of `CSc1ccccc1C(C)(C)C(=O)O`, the T/C [2] is reported as 105 % of control, the T/C [3] is reported as 105 % of control and the T/C [4] is reported as 96 % of control.

With `c1ccc(C(=NN=C(c2ccccc2)c2ccccc2)c2ccccc2)cc1` the T/C [2] was 97 % of control, the T/C [3] was 97 % of control and the T/C [4] was 95 % of control. For the same molecule, the T/C (dose: 800.0 mg/kg/injection, schedule: Q04DX003 (ip), vehicle: saline with Tween-80) was 92 % of control.
